From patent publication US20130225427A1, “METHOD FOR PREDICTION OF RESPONSE TO IMMUNE MEDIATED DISEASE THERAPEUTICS” (SANFORD-BURNHAM MEDICAL RESEARCH INSTITUTE, priority 2010, published 2013)

What was measured:
Format in all cases: in vivo, human
[1] = system: APC; test: Taqman gene expression in APC from PBMC of treated RA clinical responders; settings: compared to initiation of the treatment
Source text: (§1) The aim of this study is to identify clusters of immune pathways characteristic of responsiveness that are specific to treatment. […] We show as summary a color coded table. We clustered individual immune functions according to cut off values identified in preliminary studies (25% change compared with baseline at active disease). The Table 1 depicts the differences for patients who are all responders and therefore otherwise clinically indistinguishable ([…]).
(§2) PBMCs from each patient were incubated for 48 hours with plate bound anti-CD3/CD28. Non-adherent cells were collected to enrich T cells by pan T-cell MACS. T cells were FACS sorted on CD4+CD127+ (TE) and CD4+CD25+CD127− (nTreg), and CD4+CD25+PD1+CD127− (PD1+ Treg). Aliquots of all sorted cells were collected for TaqMan. The remainder of the APCs and TE were cultured with isolated Treg. CFSE was added to the TE cells and cultured for a total of 4 days with anti-CD3/CD28.

[2] = system: Te Cells; test: Taqman gene expression in sorted CD4+CD127+ effector T cells (TE) of treated RA clinical responders; settings: compared to initiation of the treatment
Source text: as §1, §2

[3] = system: nTreg; test: Taqman gene expression in sorted CD4+CD25+CD127− nTreg of treated RA clinical responders; settings: compared to initiation of the treatment
Source text: as §1, §2

[4] = system: PD1 + Treg; test: Taqman gene expression in sorted CD4+CD25+PD1+CD127− PD1+ Treg of treated RA clinical responders; settings: compared to initiation of the treatment
Experimental: The aim of this study is to identify clusters of immune pathways characteristic of responsiveness that are specific to treatment. […] We clustered individual immune functions according to cut off values identified in preliminary studies (25% change compared with baseline at active disease).
as §2

[5] = system: Treg; test: Suppression activity of Treg on CFSE-labelled TE proliferation; settings: when clinical response is seen (FIG. 3)
Experimental: as §2

CN(Cc1cnc2nc(N)nc(N)c2n1)c1ccc(C(=O)N[C@@H](CCC(=O)O)C(=O)O)cc1 [MTX, methotrexate]
B7-H1 up or down regulated [1]: up regulated (cut off values identified in preliminary studies (25% change compared with baseline at active disease))
B7-H2 up or down regulated [1]: up regulated (cut off values identified in preliminary studies (25% change compared with baseline at active disease))
B7-H4 up or down regulated [1]: up regulated (cut off values identified in preliminary studies (25% change compared with baseline at active disease))
FAS-L up or down regulated [1]: up regulated (cut off values identified in preliminary studies (25% change compared with baseline at active disease))
IL-10 up or down regulated [1]: up regulated (cut off values identified in preliminary studies (25% change compared with baseline at active disease))
INFγ up or down regulated [1]: up regulated (cut off values identified in preliminary studies (25% change compared with baseline at active disease))
TGFβ up or down regulated [1]: up regulated (cut off values identified in preliminary studies (25% change compared with baseline at active disease))
percent change in expression of B7-H1 [1]: +106.4%
percent change in expression of B7-H2 [1]: +98.4%
percent change in expression of B7-H4 [1]: +118.6%
percent change in expression of FAS-L [1]: +83.1%
percent change in expression of IL-10 [1]: +28.6%
percent change in expression of INFγ [1]: +219.9%
percent change in expression of TGFβ [1]: +31.1%
IL-10 up or down regulated [2]: no change (cut off values identified in preliminary studies (25% change compared with baseline at active disease))
IL-17A up or down regulated [2]: no change (cut off values identified in preliminary studies (25% change compared with baseline at active disease))
TGFβ up or down regulated [2]: up regulated (cut off values identified in preliminary studies (25% change compared with baseline at active disease))
percent change in expression of FAS-L [2]: 20.5%
percent change in expression of GATA-3 [2]: −21.6%
percent change in expression of ICOS [2]: −7.2%
percent change in expression of IL-10 [2]: +15.2%
percent change in expression of IL-17A [2]: +0.3%
percent change in expression of INFγ [2]: +1.7%
percent change in expression of PD-1 [2]: +5.6%
percent change in expression of TGFβ [2]: +150.8%
percent change in expression of TNFα [2]: 2.3%
percent change in expression of Tbet [2]: −17.1%
CTLA4 up or down regulated [3]: up regulated (cut off values identified in preliminary studies (25% change compared with baseline at active disease))
FoxP3 up or down regulated [3]: up regulated (cut off values identified in preliminary studies (25% change compared with baseline at active disease))
Granzyme B up or down regulated [3]: up regulated (cut off values identified in preliminary studies (25% change compared with baseline at active disease))
INFγ up or down regulated [3]: up regulated (cut off values identified in preliminary studies (25% change compared with baseline at active disease))
PD1 up or down regulated [3]: up regulated (cut off values identified in preliminary studies (25% change compared with baseline at active disease))
TGFβ up or down regulated [3]: up regulated (cut off values identified in preliminary studies (25% change compared with baseline at active disease))
percent change in expression of CTLA4 [3]: +684.0%
percent change in expression of FoxP3 [3]: 439.0%
percent change in expression of Granzyme B [3]: +393.7%
percent change in expression of INFγ [3]: +99.6%
percent change in expression of PD1 [3]: +474.2%
percent change in expression of TGFβ [3]: +69.3%
CTLA4 up or down regulated [4]: up regulated (cut off values identified in preliminary studies (25% change compared with baseline at active disease))
FoxP3 up or down regulated [4]: up regulated (cut off values identified in preliminary studies (25% change compared with baseline at active disease))
Granzyme B up or down regulated [4]: up regulated (cut off values identified in preliminary studies (25% change compared with baseline at active disease))
IL-10 up or down regulated [4]: up regulated (cut off values identified in preliminary studies (25% change compared with baseline at active disease))
INFγ up or down regulated [4]: up regulated (cut off values identified in preliminary studies (25% change compared with baseline at active disease))
PD1 up or down regulated [4]: up regulated (cut off values identified in preliminary studies (25% change compared with baseline at active disease))
Perforin up or down regulated [4]: up regulated (cut off values identified in preliminary studies (25% change compared with baseline at active disease))
TGFβ up or down regulated [4]: up regulated (cut off values identified in preliminary studies (25% change compared with baseline at active disease))
percent change in expression of FoxP3 [4]: +124.1%
percent change in expression of Granzyme B [4]: +213.8%
percent change in expression of IL-10 [4]: 168.8%
percent change in expression of INFγ [4]: +355.0%
percent change in expression of PD1 [4]: 290.3%
percent change in expression of Perforin [4]: +288.7%
percent change in expression of TGFβ [4]: +254.4%
suppressive capability of Treg to suppress effector proliferation [5]: enhanced
